Paper PMC10154249, “Unique progerin C-terminal peptide ameliorates Hutchinson–Gilford progeria syndrome phenotype by rescuing BUBR1” (Nature Aging, 2023)
Several values for one entry are separate records, joined by “and”; a condition that tells them apart may be missing. Equal values may be shown once.

What was measured:
[1] = tested on: esophagus of Lmna^G609G/G609G mice; experiment: Masson staining of esophagus (lamina propria); assay type: in vivo, mouse; details: 13 weeks; for aortic adventitia, mean / aortic adventitia: 20 mg kg^–1 i.p.
Description: (§1) For UPCP injection, 14-day-old Lmna^G609G/G609G mice were injected intraperitoneally with either PBS or UPCP (20 mg kg^–1, every other day) and wild-type mice were injected with PBS. […] Bodyweight and lifespan were monitored after UPCP treatment. The survival rate was analyzed by the Kaplan–Meier method. We only included mice that were of sufficient bodyweight at the start of the experiment, typically at least 80% of the average littermate weight of the same sex and genotype. All animals meeting criteria for inclusion were then divided randomly into three groups according to genotype (Lmna^+/+, Lmna^G609G/G609G-Mock and Lmna^G609G/G609G-UPCP).
(§2) For histological analyses, mice of the indicated genotypes were perfused with PBS, then with 4% paraformaldehyde (PFA). Whole organs were incubated in 4% PFA at 4 °C for 16 h. All samples were paraffin embedded and sectioning by Servicebio. Subsequently, the tissues were deparaffinized and rehydrated before hematoxylin-eosin (HE) or Masson staining or immunohistochemistry (IHC). HE staining was performed using an HE Kit (Absin, catalog no. abs9217), and Masson staining was performed using Masson’s Trichrome Stain Kit (Absin, catalog no. abs9347) according to the manufacturer’s instructions. The thickness of the layers or the areas of fibrosis in the tissues were calculated using ImageJ software by a blinded investigator. For IHC, the sections were completed by the Servicebio. The images were acquired by a microscope (Leica DMi8) and analyzed with Leica Application Suite X v.3.6.0.24 (Leica). For BubR1, cytoplasmic staining in cells was scored on the intensity of staining and the proportion of positive cells by a blinded investigator. The intensity of the staining was graded as 0 (negative, no color), 1 (low positive, light yellow), 2 (positive, brown yellow) or 3 (high positive, brown), and the number of positive cells was graded as 0 (<5%), 1 (5–25%), 2 (25–50%), 3 (51–75%) or 4 (>75%). The final score was defined as staining number score multiplied by staining color score. For lamin B1, p21 or IL-6, the proportion of positive cells was used to quantify the expression of protein in tissues by a blinded investigator.

[2] = tested on: heart of Lmna^G609G/G609G mice; experiment: Masson staining of heart (fibrosis); assay type: in vivo, mouse; details: 13 weeks
Description: as §1, §2

[3] = tested on: BUBR1 in IMR90-progerin cells; experiment: Western blot of BUBR1 in progerin-expressing IMR90 cells; assay type: cell-based, human
Description: Western blot was performed as previously described. Cells were lysed in 1× Laemmli sample buffer after washing twice in cold PBS without calcium and magnesium. Protein concentrations were determined using the bicinchoninic acid (BCA) protein assay. Protein lysates were subjected to SDS–PAGE, transferred to 0.45-μm pore size hydrophobic PVDF transfer membrane (Merck Millipore), detected with the appropriate primary antibodies coupled with horseradish peroxidase-conjugated corresponding secondary antibodies, and visualized using enhanced chemiluminescence ECL reagent (GE Healthcare). The Tanon 5500 high-definition low-illumination CCD system (Tanon FLI Capture v.1.02) was used to capture chemiluminescent signals.

HGADFN003 cells = experiment: SA-β-gal staining of HGADFN003 cells; assay type: cell-based, human; details: for Relative percentage of SA-β-gal positive cells: Fig. 5a, Mock 32, 39, 31, P=0.0059; for SA-β-gal positive cells: HGADFN003, Extended Data Fig. 10c
Description: SA-β-gal staining was performed as previously described. Cells were fixed in 0.5% glutaraldehyde for 15 min at room temperature, washed three times with PBS (pH 6.0) containing 1 mM MgCl2 and exposed overnight 37 °C to containing 1 mg ml^–1 5-bromo-4-chloro-3-indolyl-β-D-galactopyranoside (MCE, catalog no. HY-15934), 0.12 mM potassium ferrocyanide (Sigma, catalog no. P3289), 0.12 mM potassium ferricyanide (Sigma, catalog no. P8131) and 1 mM MgCl2 PBS buffer (pH 6.0). Cells were washed three times with H2O and observed under a microscope (OLYMPUS CKX53). SA-β-gal positive cells were quantified by investigators who were blinded to the identity of the analyzed cell.

[4] = 20 mg kg^–1 i.p. every other day

## H-YGRKKRRQRRRYNLRSRTVLCGTCGQPADKASASGSGAQSPQNCSIM-OH (cysteines drawn unpaired) [UPCP, unique progerin C-terminal peptide]
[1]; [4]
  fibrosis of lamina propria, esophagus: reduced fibrosis of lamina propria in the esophagus and heart
  thickness of lamina propria, esophagus: decreased the thickness of the lamina propria in the esophagus
[1]; sample 1, mean of 3 measurements
  aortic adventitia, mean: 9.139 μm
[1]; sample 1, measurement 1
  aortic adventitia: 9.452 μm
[1]; sample 1, measurement 2
  aortic adventitia: 8.478 μm
[1]; sample 1, measurement 3
  aortic adventitia: 9.488 μm
[1]; sample 2, mean of 3 measurements
  aortic adventitia, mean: 9.054 μm
[1]; sample 2, measurement 1
  aortic adventitia: 9.392 μm
[1]; sample 2, measurement 2
  aortic adventitia: 8.624 μm
[1]; sample 2, measurement 3
  aortic adventitia: 9.147 μm
[1]; sample 3, mean of 3 measurements
  aortic adventitia, mean: 10.936 μm
[1]; sample 3, measurement 1
  aortic adventitia: 10.5409 μm
[1]; sample 3, measurement 2
  aortic adventitia: 9.16 μm
[1]; sample 3, measurement 3
  aortic adventitia: 13.1073 μm
[2]; [4]
  fibrosis, heart: reduced fibrosis of lamina propria in the esophagus and heart
[2]; 20 mg kg^–1 i.p., replicate 1
  fibrosis area/ total area, heart: 0.003612 and 0.3612%
[2]; 20 mg kg^–1 i.p., replicate 1, total area 1.938
  fibrosis area, heart: 0.007
[2]; 20 mg kg^–1 i.p., replicate 2, total area 1.976
  fibrosis area, heart: 0.002
[2]; 20 mg kg^–1 i.p., replicate 3, total area 2.43
  fibrosis area, heart: 0.004
[3]
  BUBR1 abundance: upregulated BUBR1
HGADFN003 cells; HGADFN003, replicate 1
  Relative percentage of SA-β-gal positive cells: 15%
HGADFN003 cells; HGADFN003, replicate 2
  Relative percentage of SA-β-gal positive cells: 10%
HGADFN003 cells; HGADFN003, replicate 3
  Relative percentage of SA-β-gal positive cells: 19%
HGADFN003 cells; HGADFN003
  SA-β-gal activity (FTI-277/UPCP comparison, words): decreased the activity of SA-β-gal
HGADFN003 cells; replicate 1
  SA-β-gal positive cells: 12%
HGADFN003 cells; replicate 2
  SA-β-gal positive cells: 18%
HGADFN003 cells; replicate 3
  SA-β-gal positive cells: 25%
HGADFN003 cells; HGPS cells
  SA-β-gal activity: reduced activity of SA-β-gal
  efficacy on HGPS cellular senescence relative to FTI-277: comparable with farnesyltransferase inhibitors (FTI-277)
